This note sets out measurements from PMC10388311, “Innovative Strategy toward Mutant CFTR Rescue in Cystic Fibrosis: Design and Synthesis of Thiadiazole Inhibitors of the E3 Ligase RNF5” (Journal of Medicinal Chemistry, 2023).

Series [1] addresses F508del-CFTR in CFBE41o– cells (Homo sapiens, UniProt Q99942). The series can be described thus: CFTR immunoprecipitation and Western blot (CFTR expression and ubiquitylation). The following applies: 24 h, 16 5 μM, VX-661 + VX-445 10 μM + 3 μM. In kind it is cell-based. How it is done:
Finally, we evaluated ubiquitylation of mutant CFTR in CFBE41o^– cells following 24 h treatment with DMSO (vehicle), analogue 16, VX-661 + VX-445, and their combination. Subsequently, cells were treated for 4 h with DMSO alone or with MG-132 (10 μM; to block proteasomal degradation) and then lysed. Cell lysates were immunoprecipitated using an anti-CFTR antibody and then subjected to SDS-PAGE followed by Western blotting to evaluate CFTR expression and ubiquitylation status (Figure 9C–F). […] In brief, cells were lysed and, after centrifugation, the protein concentration in the supernatant was calculated using the BCA assay (Euroclone, Pero (MI), Italy) following supplier’s instructions An aliquot of supernatant corresponding to 600 μg of protein was incubated for 1 h with 2 μg/sample of rabbit polyclonal anti-CFTR antibody (Alomone Labs, Jerusalem, Israel), with rocking at room temperature (RT). […] Equal amounts of IP products were analyzed by Western blotting (20 μL). […] In brief, equal amounts of lysates (25 μg) or IP products (20 μL) were separated onto gradient 4–15% Criterion TGX Precast gels (Bio-rad laboratories Inc.), transferred to a nitrocellulose membrane with a Trans-Blot Turbo system (Bio-rad Laboratories Inc.), and analyzed by Western blotting. […]
For orientation: In western blotting, separated proteins are transferred to a membrane and probed.

The subject of series [2] is CFBE41o– cells. Briefly: Apoptosis assay (Hoechst 33342 / propidium iodide, high-content imaging). In kind it is cell-based, human. How it is done:
We performed a preliminary evaluation of the effect of chronic treatment with selected analogues on the proliferation and apoptosis of CFBE41o^– cells (Figure 7). Indeed, RNF5 can modulate cell motility and proliferation by regulating paxillin ubiquitylation and thus its degradation.[53] For the proliferation assay, CFBE41o^– cells stably co-expressing F508del-CFTR and the HS-YFP were treated with test compounds (5 μM), VX-809 (1 μM), or vehicle alone (DMSO) for 48 h. Cell proliferation was then monitored by measuring the area covered by the cells based on the YFP signal. For the apoptosis assay, 24 h after plating, CFBE41o^– cells stably expressing F508del-CFTR were treated with test compounds (5, 20, and 100 μM), VX-809 (1 μM), MG132 (50 μM), or vehicle alone (DMSO) for 24 h. Cell nuclei were then counterstained with Hoechst 33342 and propidium iodide to visualize the total and apoptotic cell count, respectively, and imaged by using an Opera Phenix high-content screening system.
CFBE41o^– cells stably expressing F508del-CFTR and the HS-YFP were plated at a low density (5000 cell/well) on 96-well plates suitable for high-content imaging. […] Cell proliferation was monitored (by exploiting the YFP signal to determine the area covered by cells) for 48 h using the Opera Phenix (PerkinElmer) high-content screening system. […] Data are expressed as means ± SEM, n = 6. […]

Chain of F508del-CFTR in CFBE41o– cells (Q99942 2-180): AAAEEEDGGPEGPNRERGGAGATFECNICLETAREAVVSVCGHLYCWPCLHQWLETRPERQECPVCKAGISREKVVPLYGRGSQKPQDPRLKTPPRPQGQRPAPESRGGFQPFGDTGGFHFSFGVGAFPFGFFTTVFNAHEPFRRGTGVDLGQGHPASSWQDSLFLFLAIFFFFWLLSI
Chain of F508del-CFTR in CFBE41o– cells (P13569 with tags, fused parts or gaps DEL508-508 partner): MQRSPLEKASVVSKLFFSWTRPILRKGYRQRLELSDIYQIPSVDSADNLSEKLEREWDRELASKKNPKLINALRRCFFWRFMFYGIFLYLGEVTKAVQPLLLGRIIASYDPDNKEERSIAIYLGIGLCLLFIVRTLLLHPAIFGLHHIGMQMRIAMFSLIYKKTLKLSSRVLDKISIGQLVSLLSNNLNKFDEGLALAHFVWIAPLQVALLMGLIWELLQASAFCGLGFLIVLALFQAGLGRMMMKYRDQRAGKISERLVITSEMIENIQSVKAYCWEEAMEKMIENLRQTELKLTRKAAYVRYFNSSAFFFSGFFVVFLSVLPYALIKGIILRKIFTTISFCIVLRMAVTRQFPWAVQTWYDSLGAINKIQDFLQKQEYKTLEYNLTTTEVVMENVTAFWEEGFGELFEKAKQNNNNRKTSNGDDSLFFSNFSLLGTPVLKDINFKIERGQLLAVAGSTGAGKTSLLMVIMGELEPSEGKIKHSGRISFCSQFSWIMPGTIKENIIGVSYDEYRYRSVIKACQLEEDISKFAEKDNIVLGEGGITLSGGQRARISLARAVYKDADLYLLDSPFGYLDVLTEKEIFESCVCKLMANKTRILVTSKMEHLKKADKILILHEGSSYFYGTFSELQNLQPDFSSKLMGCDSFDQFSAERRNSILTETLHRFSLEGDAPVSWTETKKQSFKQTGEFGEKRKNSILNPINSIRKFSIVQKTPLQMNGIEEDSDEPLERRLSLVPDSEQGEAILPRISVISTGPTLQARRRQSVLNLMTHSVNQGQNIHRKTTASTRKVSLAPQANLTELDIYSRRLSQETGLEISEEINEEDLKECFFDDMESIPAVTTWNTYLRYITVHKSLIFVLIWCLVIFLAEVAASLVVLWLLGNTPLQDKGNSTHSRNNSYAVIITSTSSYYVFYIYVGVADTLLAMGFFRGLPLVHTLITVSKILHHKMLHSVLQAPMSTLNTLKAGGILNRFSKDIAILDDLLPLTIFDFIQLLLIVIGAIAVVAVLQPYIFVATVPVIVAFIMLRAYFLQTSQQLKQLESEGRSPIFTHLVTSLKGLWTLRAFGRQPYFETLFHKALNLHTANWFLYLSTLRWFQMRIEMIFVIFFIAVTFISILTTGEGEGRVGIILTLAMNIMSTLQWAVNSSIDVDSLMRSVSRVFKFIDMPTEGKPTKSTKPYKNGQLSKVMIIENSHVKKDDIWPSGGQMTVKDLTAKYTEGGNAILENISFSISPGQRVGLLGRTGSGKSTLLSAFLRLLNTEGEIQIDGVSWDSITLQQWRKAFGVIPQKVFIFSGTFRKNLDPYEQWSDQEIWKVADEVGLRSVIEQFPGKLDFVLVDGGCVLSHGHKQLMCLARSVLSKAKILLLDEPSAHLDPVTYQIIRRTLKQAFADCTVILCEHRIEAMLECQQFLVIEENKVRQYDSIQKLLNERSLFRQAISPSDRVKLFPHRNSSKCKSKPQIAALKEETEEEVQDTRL

For `COc1cccc(Cn2c(C)ns/c2=N\C(=N\c2ccccc2)c2ccccc2)c1` [Compound 16, (E)-N-((Z)-4-(3-Methoxybenzyl)-3-methyl-1,2,4-thiadiazol-5(4H)-ylidene)-N′-phenylbenzimidamide], in series [1], the “rescue of mutant CFTR (mature form, band C)” value is “very modest”. Also, the “effect on cell proliferation and apoptosis (tolerability)” value in series [2] was “good tolerability and no toxic side effects”.
